Results from patent US20060178374A1, “Aminoheteroaryl compounds as protein kinase inhibitors” (AGOURON PHARMACEUTICALS, INC., priority 2004, published 2006).

target: HGFR (c-Met) (Homo sapiens, UniProt P08581); assay: HGFR Continuous-Coupled Spectrophotometric Assay; type: biochemical; conditions: HGFR enzyme 50 nM, Met-2 peptide substrate, 37° C.
Outline: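 Human HGFR (50 nM final) phosphorylates the Met-2 activation-loop peptide, with ADP formation coupled through PK/LDH to NADH consumption, read as the A340 decrease over 10 min at 37 °C. Buffer was HEPES pH 7.5 with MgCl2, DTT, PEP and ATP.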

Sequence of HGFR (c-Met) (P08581 974-1390): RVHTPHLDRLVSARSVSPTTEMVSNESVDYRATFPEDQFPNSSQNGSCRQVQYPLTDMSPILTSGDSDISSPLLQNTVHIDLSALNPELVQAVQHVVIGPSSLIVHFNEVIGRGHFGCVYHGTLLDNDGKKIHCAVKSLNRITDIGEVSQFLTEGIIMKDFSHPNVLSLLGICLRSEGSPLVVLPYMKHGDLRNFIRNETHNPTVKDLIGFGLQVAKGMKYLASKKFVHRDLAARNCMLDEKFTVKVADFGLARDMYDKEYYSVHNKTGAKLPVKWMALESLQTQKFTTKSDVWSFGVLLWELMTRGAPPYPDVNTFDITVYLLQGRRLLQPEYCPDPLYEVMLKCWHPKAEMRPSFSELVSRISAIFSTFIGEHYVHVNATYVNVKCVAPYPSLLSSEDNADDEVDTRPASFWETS

SMILES | Ki [nM]
COC(=O)c1n[nH]c2cc(-c3cnc(N)c(OC(C)c4c(Cl)ccc(F)c4Cl)c3)ccc12 (stereo not drawn) [Example 106, methyl 6-{6-amino-5-[1-(2,6-dichloro-3-fluorophenyl)ethoxy]pyridin-3-yl}-1H-indazole-3-carboxylate] | 44
CC(Oc1cc(-c2cnc3[nH]c(=O)oc3c2)cnc1N)c1c(Cl)ccc(F)c1Cl (stereo not drawn) [Example 107, 6-{6-amino-5-[1-(2,6-dichloro-3-fluorophenyl)ethoxy]pyridin-3-yl}(1,3]oxazolo[4,5-b]pyridin-2 (3H)-one] | 27
COc1cc(-c2cnc(N)c(OC(C)c3c(Cl)ccc(F)c3Cl)c2)ccc1OCCO (stereo not drawn) [Example 108, 2-(4-{6-amino-5-[1-(2,6-dichloro-3-fluorophenyl)ethoxy]pyridin-3-yl}-2-methoxyphenoxy)ethanol] | 22
Cc1noc(C)c1-c1cnc(N)c(OC(C)c2c(Cl)ccc(F)c2Cl)c1 (stereo not drawn) [Example 109, 3-[1-(2,6-dichloro-3-fluoropheny)ethoxy]-5-(3,5-dimethylisoxazol-4-yl)pyridin-2-amine] | 860
CC(Oc1cc(C2=CCCC2)cnc1N)c1c(Cl)ccc(F)c1Cl (stereo not drawn) [Example 110, 5-cyclopent-1-en-1-yl-3-[1-(2,6-dichloro-3-fluorophenyl)ethoxy]pyridin-2-amine] | 250
COc1cc(-c2cnc(N)c(OC(C)c3c(Cl)ccc(F)c3Cl)c2)ccc1OCCN1CCCC1 (stereo not drawn) [Example 111, 3-[1-(2,6-dichloro-3-fluorophenyl)ethoxy]-5-[3-methoxy-4-(2-pyrrolidin-1-ylethoxy)phenyl]pyridin-2-amine] | 28
CC(Oc1cc(-c2ccc(C(=O)N3CC(N)C3)cc2)cnc1N)c1c(Cl)ccc(F)c1Cl (stereo not drawn) [Example 112, 5-{4-[(3-aminoazetidin-1-yl)carbonyl]phenyl}-3-[1-(2,6-dichloro-3-fluorophenyl)ethoxy]pyridin-2-amine] | 18
CC(Oc1cc(-c2cncnc2)cnc1N)c1c(Cl)ccc(F)c1Cl (stereo not drawn) [Example 113, 3-[1-(2,6-dichloro-3-fluorophenyl)ethoxy]-5-pyrimidin-5-ylpyridin-2-amine] | 360
CC(Oc1cc(-c2cnc(OC3CCN(C(=O)OC(C)(C)C)CC3)nc2)cnc1N)c1c(Cl)ccc(F)c1Cl (stereo not drawn) [Example 114, tert-butyl 4-[(5-{6-amino-5-[1-(2,6-dichloro-3-fluorophenyl)ethoxy]pyridin-3-yl}pyrimidin-2-yl)oxy]piperidine-1-carboxylate] | 480
CC(Oc1cc(-c2cnc(Cl)nc2)cnc1N)c1c(Cl)ccc(F)c1Cl (stereo not drawn) [Example 115, 5-(2-chloropyrimidin-5-yl)-3-[1-(2,6-dichloro-3-fluorophenyl)ethoxy]pyridin-2-amine] | 1500
CC(Oc1cc(-c2cnc(OC3CCNCC3)nc2)cnc1N)c1c(Cl)ccc(F)c1Cl (stereo not drawn) [Example 116, 3-[1-(2,6-dichloro-3-fluorophenyl)ethoxy]-5-[2-(piperidin-4-yloxy)pyrimidin-5-yl]pyridin-2-amine] | 160
COc1ncc(-c2cnc(N)c(OC(C)c3c(Cl)ccc(OC)c3Cl)c2)cn1 (stereo not drawn) [Example 117, 3-[1-(2,6-dichloro-3-methoxyphenyl)ethoxy]-5-(2-methoxypyrimidin-5-yl)pyridin-2-amine] | 160
CC(Oc1cc(-c2ccc(C(=O)N(C)CCN(C)C)cc2)cnc1N)c1c(Cl)ccc(F)c1Cl (stereo not drawn) [Example 118, 4-{6-amino-5-[1-(2,6-dichloro-3-fluorophenyl)ethoxy]pyridin-3-yl}-N-[2-(dimethylamino)ethyl]-N-methylbenzamide] | 30
C[C@H](Oc1cc(-c2ccc(C(=O)N3CCNCC3)cc2)cnc1N)c1c(Cl)ccc(F)c1Cl [Example 119, 3-[(1S)-1-(2,6-dichloro-3-fluorophenyl)ethoxy]-5-[4-(piperazin-1-ylcarbonyl)phenyl] pyridin-2-amine] | 1500
CC(Oc1cc(-c2cnc(N3CCN(C(=O)OC(C)(C)C)CC3)nc2)cnc1N)c1c(Cl)ccc(F)c1Cl (stereo not drawn) [Example 120, tert-butyl 4-(5-{6-amino-5-[1-(2,6-dichloro-3-fluorophenyl)ethoxy]pyridin-3-yl}pyrimidin-2-yl)piperazine-1-carboxylate] | 1000
